According to ChEMBL document CHEMBL4130460, “Anti-inflammatory Activity of Eudesmane-Type Sesquiterpenoids from Salvia plebeia” (J Nat Prod, 2017):
Active and inactive are the calls of the source. No cut-off for these calls is given here.

Experiments:
RAW264.7 [1] = assay: Cytotoxicity against mouse RAW264.7 cells assessed as reduction in cell viability at 50 uM after 24 hrs by MTT assay; assay type: cell-based; conditions: raw264.7, 24 h
RAW264.7 [2] = assay: Anti-inflammatory activity in mouse RAW264.7 cells assessed as reduction in LPS-induced NO production preincubated for 30 mins followed by LPS stimulation measured after 24 hrs by Griess assay; assay type: functional, cell-based
RAW264.7 [3] = assay: Inhibition of NF-kappaB in LPS-induced mouse RAW264.7 cells assessed as reduction in COX2 mRNA levels at 5 to 25 uM preincubated for 1 hr followed by LPS stimulation measured after 24 hrs by RT-PCR analysis; assay type: cell-based
RAW264.7 [4] = assay: Inhibition of NF-kappaB in LPS-induced mouse RAW264.7 cells assessed as reduction in IL-1beta mRNA levels preincubated for 1 hr followed by LPS stimulation measured after 24 hrs by RT-PCR analysis; assay type: cell-based
[5] = biological target: Transcription factor p65 (Mus musculus) (UniProt Q04207); assay: Inhibition of NF-kappaB p65 phosphorylation in cytosol of LPS-stimulated mouse RAW264.7 cells preincubated for 1 hr followed by LPS stimulation for 90 mins by Western blot method; assay type: cell-based
Chain of Transcription factor p65 (Mus musculus) (Q04207 whole entry): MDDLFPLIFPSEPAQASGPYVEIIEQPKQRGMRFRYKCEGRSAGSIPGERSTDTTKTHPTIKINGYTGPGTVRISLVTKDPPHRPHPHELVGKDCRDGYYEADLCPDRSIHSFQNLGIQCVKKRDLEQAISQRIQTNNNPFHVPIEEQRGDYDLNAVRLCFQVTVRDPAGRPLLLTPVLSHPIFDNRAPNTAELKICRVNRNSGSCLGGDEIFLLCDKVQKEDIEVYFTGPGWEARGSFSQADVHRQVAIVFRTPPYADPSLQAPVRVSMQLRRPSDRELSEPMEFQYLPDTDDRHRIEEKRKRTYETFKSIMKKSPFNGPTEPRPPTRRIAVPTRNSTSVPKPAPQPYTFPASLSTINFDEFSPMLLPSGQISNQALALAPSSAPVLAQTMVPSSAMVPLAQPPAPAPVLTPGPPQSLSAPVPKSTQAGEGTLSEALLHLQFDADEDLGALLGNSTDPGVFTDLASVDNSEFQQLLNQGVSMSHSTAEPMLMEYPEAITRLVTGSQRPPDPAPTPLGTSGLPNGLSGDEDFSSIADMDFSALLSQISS

[6] = biological target: MAP kinase p38 (Mus musculus) (UniProt P47811+O08911+Q9WUI1+Q9Z1B7); assay: Inhibition of MAPK p38 phosphorylation in LPS-stimulated mouse RAW264.7 cells at 5 to 25 uM preincubated for 1 hr followed by LPS stimulation for 30 mins by Western blot method; assay type: cell-based
[7] = biological target: Transcription factor p65 (Mus musculus) (UniProt Q04207); assay: Inhibition of NF-kappaB p65 phosphorylation in nucleus of LPS-stimulated mouse RAW264.7 cells preincubated for 1 hr followed by LPS stimulation for 90 mins by Western blot method; assay type: cell-based
RAW264.7 [8] = assay: Inhibition of JNK phosphorylation in LPS-stimulated mouse RAW264.7 cells at 5 to 25 uM preincubated for 1 hr followed by LPS stimulation for 30 mins by Western blot method; assay type: cell-based
RAW264.7 [9] = assay: Inhibition of NF-kappaB in LPS-induced mouse RAW264.7 cells assessed as reduction in COX2 protein expression levels at 5 to 25 uM preincubated for 1 hr followed by LPS stimulation measured after 24 hrs by Western blot analysis; assay type: cell-based
RAW264.7 [10] = assay: Inhibition of NF-kappaB in LPS-induced mouse RAW264.7 cells assessed as reduction in iNOS protein expression levels at 5 to 25 uM preincubated for 1 hr followed by LPS stimulation measured after 24 hrs by Western blot analysis; assay type: cell-based
RAW264.7 [11] = assay: Inhibition of ERK phosphorylation in LPS-stimulated mouse RAW264.7 cells at 5 to 25 uM preincubated for 1 hr followed by LPS stimulation for 30 mins by Western blot method; assay type: cell-based
[12] = biological target: T1, NF-kappa-B inhibitor alpha (Mus musculus) (UniProt Q9Z1E3); assay: Inhibition of IkappaBalpha phosphorylation in cytosol of LPS-stimulated mouse RAW264.7 cells preincubated for 1 hr followed by LPS stimulation for 90 mins by Western blot method; assay type: cell-based
T1 sequence (whole entry): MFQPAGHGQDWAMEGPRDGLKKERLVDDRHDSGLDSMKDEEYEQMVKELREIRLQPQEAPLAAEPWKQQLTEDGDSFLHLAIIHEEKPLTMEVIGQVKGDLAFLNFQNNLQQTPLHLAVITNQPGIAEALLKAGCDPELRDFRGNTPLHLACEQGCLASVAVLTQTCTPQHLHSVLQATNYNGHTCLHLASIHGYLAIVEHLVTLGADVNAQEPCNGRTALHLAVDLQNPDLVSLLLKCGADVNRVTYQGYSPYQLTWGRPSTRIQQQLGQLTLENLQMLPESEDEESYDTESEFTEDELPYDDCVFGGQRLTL

RAW264.7 [13] = assay: Inhibition of NF-kappaB in LPS-induced mouse RAW264.7 cells assessed as reduction in iNOS mRNA levels preincubated for 1 hr followed by LPS stimulation measured after 24 hrs by RT-PCR analysis; assay type: cell-based
[14] = biological target: T1, NF-kappa-B inhibitor alpha (Mus musculus); assay: Inhibition of IkappaBalpha phosphorylation in nucleus of LPS-stimulated mouse RAW264.7 cells preincubated for 1 hr followed by LPS stimulation for 90 mins by Western blot method; assay type: cell-based
RAW264.7 [15] = assay: Inhibition of NF-kappaB in LPS-induced mouse RAW264.7 cells assessed as reduction in TNFalpha mRNA levels at 5 to 25 uM preincubated for 1 hr followed by LPS stimulation measured after 24 hrs by RT-PCR analysis; assay type: cell-based
[16] = biological target: Transcription factor p65 (Mus musculus) (UniProt Q04207); assay: Inhibition of NF-kappaB p65 phosphorylation in nucleus of LPS-stimulated mouse RAW264.7 cells at 5 to 25 uM preincubated for 1 hr followed by LPS stimulation for 90 mins by Western blot method; assay type: cell-based
[17] = biological target: Transcription factor p65 (Mus musculus) (UniProt Q04207); assay: Inhibition of NF-kappaB p65 phosphorylation in cytosol of LPS-stimulated mouse RAW264.7 cells at 5 to 25 uM preincubated for 1 hr followed by LPS stimulation for 90 mins by Western blot method; assay type: cell-based
[18] = biological target: T1, NF-kappa-B inhibitor alpha (Mus musculus); assay: Inhibition of IkappaBalpha phosphorylation in cytosol of LPS-stimulated mouse RAW264.7 cells at 5 to 25 uM preincubated for 1 hr followed by LPS stimulation for 90 mins by Western blot method; assay type: cell-based
[19] = biological target: T1, NF-kappa-B inhibitor alpha (Mus musculus); assay: Inhibition of IkappaBalpha phosphorylation in nucleus of LPS-stimulated mouse RAW264.7 cells at 5 to 25 uM preincubated for 1 hr followed by LPS stimulation for 90 mins by Western blot method; assay type: cell-based

## CC1=C2C[C@H]3[C@](C)(C=C2OC1=O)[C@H](O)CC[C@]3(C)O
RAW264.7 [1]
  Activity: Non-Toxic
RAW264.7 [2]
  IC50: > 100 µM

## CC1=C2C[C@@H]3[C@](C)(O)[C@@H](O)C[C@@H](O)[C@@]3(C)C=C2OC1=O
RAW264.7 [1]
  Activity: Non-Toxic
RAW264.7 [2]
  IC50: > 100 µM

## CC1=C2CC3=C(C)[C@@H](O)C[C@@H](O)[C@@]3(C)C[C@@]2(O)OC1=O
RAW264.7 [1]
  Activity: Non-Toxic
RAW264.7 [2]
  IC50: > 100 µM

## CO[C@@]12C[C@]3(C)[C@H](O)C[C@H](O)[C@H](C)[C@H]3CC1=C(C)C(=O)O2
RAW264.7 [1]
  Activity: Non-Toxic
RAW264.7 [2]
  IC50: > 100 µM

## CC1=C2C[C@@H]3[C@@H](C)[C@@H](O)C[C@@H](O)[C@@]3(C)C[C@@]2(O)OC1=O
RAW264.7 [1]
  Activity: Non-Toxic
RAW264.7 [2]
  IC50: > 100 µM

## CC1=C2C[C@H]3[C@](C)(C=C2OC1=O)[C@@H](O)CC[C@]3(C)O
RAW264.7 [1]
  Activity: Non-Toxic
RAW264.7 [2]
  IC50: > 100 µM

## CC(=O)O[C@@H]1C(=O)C=C(C)[C@@H]2CC3=C(C)C(=O)O[C@@]3(O)C[C@@]12C
RAW264.7 [1]
  Activity: Non-Toxic
RAW264.7 [2]
  IC50: > 100 µM

## CO[C@]12C[C@]3(C)C=CC(=O)[C@H](C)[C@H]3CC1=C(C)C(=O)O2
RAW264.7 [3]
  inhibition: inactive
RAW264.7 [4]
  inhibition: Dose-dependent effect
[5]
  inhibition: Dose-dependent effect
RAW264.7 [1]
  Activity: Non-Toxic
RAW264.7 [2]
  IC50: 17.9 µM
[6]
  inhibition: inactive
[7]
  inhibition: Dose-dependent effect
RAW264.7 [8]
  inhibition: inactive
RAW264.7 [9]
  inhibition: inactive
RAW264.7 [10]
  inhibition: Active
RAW264.7 [11]
  inhibition: inactive
[12]
  inhibition: Dose-dependent effect
RAW264.7 [13]
  inhibition: Dose-dependent effect
[14]
  inhibition: Dose-dependent effect
RAW264.7 [15]
  inhibition: inactive

## CC(=O)O[C@H]1C[C@@H](O)[C@@]2(C)C=C3OC(=O)C(C)=C3C[C@@H]2[C@H]1C
RAW264.7 [1]
  Activity: Non-Toxic
RAW264.7 [2]
  IC50: 30 µM

## O=c1cc(-c2ccc(O)c(O)c2)oc2cc(O)cc(O)c12 [LUTEOLIN]
RAW264.7 [2]
  IC50: 5.6 µM

## CC1=C2C[C@@H]3[C@@H](C)C(=O)C=C[C@@]3(C)C[C@H]2OC1=O
RAW264.7 [1]
  Activity: Non-Toxic
RAW264.7 [2]
  IC50: 70.2 µM

## CC1=C2C[C@@H]3[C@@H](C)[C@@H](O)C[C@@H](O)[C@@]3(C)C=C2OC1=O
RAW264.7 [1]
  Activity: Non-Toxic
RAW264.7 [2]
  IC50: > 100 µM

## CC1=C[C@@H](O)[C@@H](O)[C@@]2(C)C[C@@]3(O)OC(=O)C(C)=C3C[C@H]12
RAW264.7 [1]
  Activity: Non-Toxic
RAW264.7 [2]
  IC50: > 100 µM

## CO[C@@]12C[C@]3(C)[C@H](O)C[C@H](OC(C)=O)[C@H](C)[C@H]3CC1=C(C)C(=O)O2
RAW264.7 [1]
  Activity: Non-Toxic
RAW264.7 [2]
  IC50: 19.9 µM

## CC(=O)O[C@H]1C[C@@H](O)[C@@]2(C)C[C@@]3(O)OC(=O)C(C)=C3C[C@@H]2[C@H]1C
RAW264.7 [1]
  Activity: Non-Toxic
RAW264.7 [2]
  IC50: > 100 µM

## CC1=C2C[C@@H]3[C@@H](C)C(=O)C=C[C@@]3(C)C[C@@]2(O)OC1=O
RAW264.7 [1]
  Activity: Non-Toxic
RAW264.7 [2]
  IC50: 68.9 µM

## CC1=C2C[C@@H]3[C@@](C)(C[C@]2(O)OC1=O)C(=O)C=C[C@@]3(C)O
RAW264.7 [1]
  Activity: Non-Toxic
RAW264.7 [2]
  IC50: 57 µM

## CO[C@@]12C[C@]3(C)C=CC(=O)[C@H](C)[C@H]3CC1=C(C)C(=O)O2
RAW264.7 [3]
  inhibition: inactive
RAW264.7 [4]
  inhibition: Dose-dependent effect
RAW264.7 [1]
  Activity: Non-Toxic
[16]
  inhibition: inactive
RAW264.7 [2]
  IC50: 31.2 µM
[6]
  inhibition: inactive
RAW264.7 [8]
  inhibition: inactive
RAW264.7 [9]
  inhibition: inactive
RAW264.7 [10]
  inhibition: Active
[17]
  inhibition: inactive
RAW264.7 [11]
  inhibition: inactive
[18]
  inhibition: inactive
[19]
  inhibition: inactive
RAW264.7 [13]
  inhibition: Dose-dependent effect
RAW264.7 [15]
  inhibition: inactive

## CC(=O)O[C@H]1C[C@@H](O)[C@@]2(C)C[C@@]3(O)OC(=O)C(C)=C3[C@H](O)[C@@H]2[C@H]1C
RAW264.7 [1]
  Activity: Non-Toxic
RAW264.7 [2]
  IC50: > 100 µM

## CO[C@]12C[C@@]3(C)[C@H](OC(C)=O)C(=O)C=C(C)[C@@H]3CC1=C(C)C(=O)O2
RAW264.7 [1]
  Activity: Non-Toxic
RAW264.7 [2]
  IC50: > 100 µM

## CC(=O)OC1=C[C@@](C)(O)[C@@H]2CC3=C(C)C(=O)O[C@@]3(O)C[C@@]2(C)C1=O
RAW264.7 [1]
  Activity: Non-Toxic
RAW264.7 [2]
  IC50: > 100 µM
